How the values were obtained:
[1] = Dissociation constant was evaluated; format: physicochemical
D(1A) dopamine receptor = D(1A) dopamine receptor (Bos taurus, UniProt Q95136); assay: In vitro binding affinity towards Dopamine D1 receptor using [3H]-SCH- 23390 as radioligand
D(2) dopamine receptor = D(2) dopamine receptor (Bos taurus, UniProt P20288); assay: In vitro binding affinity towards Dopamine D2 receptor using [3H]spiperone as radioligand
D(2) dopamine receptor, sequence (P20288 whole entry): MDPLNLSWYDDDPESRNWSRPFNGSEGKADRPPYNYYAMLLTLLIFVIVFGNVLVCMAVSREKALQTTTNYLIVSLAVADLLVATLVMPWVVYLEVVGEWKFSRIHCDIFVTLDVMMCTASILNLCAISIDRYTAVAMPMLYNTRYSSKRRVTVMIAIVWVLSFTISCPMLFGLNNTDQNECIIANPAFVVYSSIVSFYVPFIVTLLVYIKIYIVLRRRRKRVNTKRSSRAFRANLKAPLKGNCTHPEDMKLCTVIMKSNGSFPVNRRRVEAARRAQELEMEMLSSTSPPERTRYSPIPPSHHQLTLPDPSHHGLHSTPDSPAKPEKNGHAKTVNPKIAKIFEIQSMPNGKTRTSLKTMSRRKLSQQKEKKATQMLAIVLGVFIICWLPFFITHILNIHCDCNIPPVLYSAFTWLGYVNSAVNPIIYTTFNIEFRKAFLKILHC

D(1A) dopamine receptor, sequence (Q95136 whole entry): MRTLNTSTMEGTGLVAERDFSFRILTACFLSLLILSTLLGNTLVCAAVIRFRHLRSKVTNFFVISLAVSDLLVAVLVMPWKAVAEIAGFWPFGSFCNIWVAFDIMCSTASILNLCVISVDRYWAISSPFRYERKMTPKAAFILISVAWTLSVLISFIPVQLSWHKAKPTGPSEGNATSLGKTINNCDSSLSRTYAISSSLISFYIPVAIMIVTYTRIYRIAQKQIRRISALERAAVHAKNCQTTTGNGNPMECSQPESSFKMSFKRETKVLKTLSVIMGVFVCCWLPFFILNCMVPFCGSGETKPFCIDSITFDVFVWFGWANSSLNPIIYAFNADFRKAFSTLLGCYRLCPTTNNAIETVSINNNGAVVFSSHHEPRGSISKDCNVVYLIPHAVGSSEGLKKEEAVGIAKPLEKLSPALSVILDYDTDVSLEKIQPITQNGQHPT

Row | pKa [1] | IC50 (D(1A) dopamine receptor) [µM] | SMILES | IC50 (D(2) dopamine receptor) [µM]
1 | 9.5 | > 100 | CCCN(CCC)CCc1ccc2[nH]c(=O)c(=O)[nH]c2c1 | 3
2 | 9.8 | > 100 | CCCN(CCC)CCc1ccc2[nH]c(S)nc2c1 | 1
3 | – | > 100 | CCCN(CCC)CCc1ccc2[nH]c(O)nc2c1 | > 100
4 | – | 0.2 | NCCc1ccc(O)c(O)c1 [DOPAMINE] | –

Row | SMILES | pKa [1] | IC50 (D(1A) dopamine receptor) [µM] | IC50 (D(2) dopamine receptor) [µM]
5 | CCCN(CCC)CCc1ccc2nn[nH]c2c1 | – | > 100 | 50
6 | CCCN(CCC)CCc1ccc(NC(=O)C(F)(F)F)c(NC(=O)C(F)(F)F)c1 | – | > 100 | > 100
7 | CCCN(CCC)CCc1ccc(NC(C)=O)c(NC(C)=O)c1 | – | > 100 | > 100

Reference: ChEMBL document CHEMBL1125999 (Bioorg Med Chem Lett, 1991)
